Square brackets hold non-standard residues; d marks the D form. Ends that are not written are not given here. pS = N[C@@H](COP(=O)(O)O)C(=O)O
What follows are substances tested on TCR27-AKD10R3 cells (assay: X-scan (peptide scan), EGFP reporter effector cells). Conditions: Fig. 1c source data, HLA B*07, T2 cells pulsed with 25 μg peptide per 1 × 10^6 cells, 2 h, 37 °C, effector cells 2:1 overnight, mean value of triplicate.
Assay type: cell-based, murine
Protocol: Tap-deficient T2 (174x CEM.T2) HLA-B*0702+ cells were received from Dr. Victor Engelhard. These and the commercially purchased Tap-deficient T2 (174 x CEM.T2) cells (ATCC CRL 1991) were maintained in RPMI 1640 (BioConcept) supplemented with 10% fetal calf serum (FCS, HyClone), 2mM L-glutamine and 1% Penicillin/Streptomycin at 37 °C and 5% CO2. The EGFP reporter cell line was based on a murine TCR negative thymoma cell line derived from strain BW5417 (ATCC®TIB-47TM) and was stably transduced with (a) TCR27 in which the human constant regions were replaced with those of mouse, (b) a chimeric mouse/human CD8, and (c) an EGFP reporter construct linked to a minimal IL-2 promoter comprising three NFAT-binding sites (3xNFAT)[44]. The transduced cells were termed TCR27-AKD10R3 cells and will be called the effector cells. Mouse cell lines were cultured in SF-IMDM (BioConcept) supplemented with 3% FCS, 1% Penicillin/Streptomycin, and 50 μM beta-mercaptoethanol at 37 °C and 10% CO2.
Peptides were dissolved in dimethyl sulfoxide (DMSO) at concentrations of 2–20 mg/mL, aliquoted and stored at −80 °C. Peptide-pulsing experiments were performed by pre-incubating T2 cells with 25 μg peptide per 1 × 10^6 cells in PBS for 2 h at 37 °C and 5% CO2, washed three times to remove unbound peptides and used for further downstream analysis. Peptide-pulsed T2 cells were incubated with effector cells in a 2:1 ratio overnight in SF-IMDM at 37 °C and 10% CO2, washed twice and stained with anti-mouse TCR-® chain clone H57-597 (BD Pharmingen #560656, 1:500) for 30 min at RT. Cells were washed twice before FACS-analysis using a BD FACS Canto II with System software v2.0. Data analysis was performed using FlowJo V10 Software. Binding affinity between each peptide and HLA-B*0702 was determined using an Alpha assay. It is a homogenous, proximity-based assay for detection of peptides binding to HLA class I molecules using a conformation-dependent anti-HLA class I antibody, W6/32, as one tag and a biotinylated recombinant HLA class I molecule as the other tag, and a proximity-based signal was generated through the luminescent oxygen channeling immunoassay technology (PerkinElmer) as described.
To identify the off-target peptides we have utilized an approach that was developed previously. In brief, we investigated which amino acids at each position in pMLL747–755 enable TCR interaction by sequentially replacing every amino acid position outside of the anchor positions 2 and 9 with all 19 alternative amino acids, resulting in 134 peptides (133 altered peptides plus original epitope). Each peptide was individually evaluated using cell-based in vitro cytotoxicity assay. To represent the TCR recognition kernel, we have defined Position Weight Matrices (PWMs) for each assay by assigning normalized measurements to each of the 20 amino acids in each position. To predict potential off-target peptides, we applied an algorithm projecting the PWM-defined kernel into the human proteome, scoring TCR27 recognition for the predicted HLA-B^*0702 binding 9-mer peptides. Of the 11 peptides with highest predicted cross-reactivity scores, we confirmed that only 2, […] and pDOT1L998–1006, strongly activated the TCR27-expressing effector T cells.

Substance | Percentage GFP positive from TCR+ cells [%]
EPRsPSHKM [single-residue substitution of pMLL747–755, Pos 8] | 2.14
EPRsPSHLM [single-residue substitution of pMLL747–755, Pos 8] | 6.68
EPRsPSHMM [single-residue substitution of pMLL747–755, Pos 8] | 5.43
EPRsPSHNM [single-residue substitution of pMLL747–755, Pos 8] | 2.91
EPRsPSHPM [single-residue substitution of pMLL747–755, Pos 8] | 2.91
EPRsPSHQM [single-residue substitution of pMLL747–755, Pos 8] | 2.83
EPRsPSHRM [single-residue substitution of pMLL747–755, Pos 8] | 1.29
EPRsPSHTM [single-residue substitution of pMLL747–755, Pos 8] | 1.97
EPRsPSHVM [single-residue substitution of pMLL747–755, Pos 8] | 3.82
EPRsPSHWM [single-residue substitution of pMLL747–755, Pos 8] | 0.87
EPRsPSHYM [single-residue substitution of pMLL747–755, Pos 8] | 1.1
EPRsPSISM [single-residue substitution of pMLL747–755, Pos 7] | 1.77
EPRsPSKSM [single-residue substitution of pMLL747–755, Pos 7] | 0.69
EPRsPSLSM [single-residue substitution of pMLL747–755, Pos 7] | 0.77
EPRsPSMSM [single-residue substitution of pMLL747–755, Pos 7] | 1.05
EPRsPSNSM [single-residue substitution of pMLL747–755, Pos 7] | 1.24
EPRsPSPSM [single-residue substitution of pMLL747–755, Pos 7] | 0.81
EPRsPSQSM [single-residue substitution of pMLL747–755, Pos 7] | 2.94
EPRsPSRSM [single-residue substitution of pMLL747–755, Pos 7] | 1.16
EPRsPSSSM [single-residue substitution of pMLL747–755, Pos 7] | 1.6
EPRsPSTSM [single-residue substitution of pMLL747–755, Pos 7] | 3.23
EPRsPSVSM [single-residue substitution of pMLL747–755, Pos 7] | 2.51
EPRsPSWSM [single-residue substitution of pMLL747–755, Pos 7] | 1.19
EPRsPSYSM [single-residue substitution of pMLL747–755, Pos 7] | 2.33
EPRsPTHSM [single-residue substitution of pMLL747–755, Pos 6] | 1.88
EPRsPVHSM [single-residue substitution of pMLL747–755, Pos 6] | 0.85

Substance | Percentage GFP positive from TCR+ cells [%]
EPRsPWHSM [single-residue substitution of pMLL747–755, Pos 6] | 0.66
EPRsPYHSM [single-residue substitution of pMLL747–755, Pos 6] | 0.75
EPRsQSHSM [single-residue substitution of pMLL747–755, Pos 5] | 0.72
EPRsRSHSM [single-residue substitution of pMLL747–755, Pos 5] | 0.73
EPRsSSHSM [single-residue substitution of pMLL747–755, Pos 5] | 0.79
EPRsTSHSM [single-residue substitution of pMLL747–755, Pos 5] | 0.78
EPRsVSHSM [single-residue substitution of pMLL747–755, Pos 5] | 0.96
EPRsWSHSM [single-residue substitution of pMLL747–755, Pos 5] | 1.08
EPRsYSHSM [single-residue substitution of pMLL747–755, Pos 5] | 1
EPSsPSHSM [single-residue substitution of pMLL747–755, Pos 3] | 2.7
EPTsPSHSM [single-residue substitution of pMLL747–755, Pos 3] | 1.16
EPVsPSHSM [single-residue substitution of pMLL747–755, Pos 3] | 2.11
EPWsPSHSM [single-residue substitution of pMLL747–755, Pos 3] | 0.92
EPYsPSHSM [single-residue substitution of pMLL747–755, Pos 3] | 1.08
FPRsPSHSM [single-residue substitution of pMLL747–755, Pos 1] | 1.43
GPRsPSHSM [single-residue substitution of pMLL747–755, Pos 1] | 1.59
HPRsPSHSM [single-residue substitution of pMLL747–755, Pos 1] | 1.23
IPRsPSHSM [single-residue substitution of pMLL747–755, Pos 1] | 1.7
KPRsPSHSM [single-residue substitution of pMLL747–755, Pos 1] | 1.37
LPRsPSHSM [single-residue substitution of pMLL747–755, Pos 1] | 10.7
MPRsPSHSM [single-residue substitution of pMLL747–755, Pos 1] | 1.37
NPRsPSHSM [single-residue substitution of pMLL747–755, Pos 1] | 1.27
PPRsPSHSM [single-residue substitution of pMLL747–755, Pos 1] | 1.13
QPRsPSHSM [single-residue substitution of pMLL747–755, Pos 1] | 2.64
RPRsPSHSM [single-residue substitution of pMLL747–755, Pos 1] | 1.11
SPRsPSHSM [single-residue substitution of pMLL747–755, Pos 1] | 1.08

Same assay, conditions: Fig. 1c source data, second set of control lines at the end of the sheet (no Pep code)

Substance | Percentage GFP positive from TCR+ cells [%]
RVR[pS]PTRSL [unrelated phosphopeptide control of the X-scan, reference compound] | 0.74
